Literature values, collected in patent US6974588B1, “Transdermal patch for delivering volatile liquid drugs” (Elan Pharma International Limited, priority 1999, dated 2005).

Test system: nicotine dependence
Conditions: oral administration, literature report

## CNC1(C)C2CCC(C2)C1(C)C (stereo not shown) [oral mecamylamine, mecamylamine]
  ad hoc cigarette consumption: increased
